Converted amounts (≈) assume the structure as drawn. Where two headings read alike, the source gives them in different places.
Assays:
Assay in all cases: microbe, parasite or virus in culture
Assay type in all cases: cell-based
bacterial isolates = system: bacterial isolates
[1] = system: inherently resistant microorganisms
[2] = system: microorganisms with acquired resistance
S. aureus = conditions: Staphylococcus aureus; S. aureus SBSA4; read-out: Mupirocin MIC Alone

C/C(=C\C(=O)OCCCCCCCCC(=O)O)C[C@@H]1OC[C@H](C[C@@H]2O[C@H]2[C@@H](C)[C@H](C)O)[C@@H](O)[C@H]1O [Mupirocin] was tested, and the MIC (bacterial isolates; Escherichia coli, read-out: Mupirocin MIC Alone, E. coli ECO1) was over 100 µg/mL, the MIC (bacterial isolates; Escherichia coli, read-out: Mupirocin MIC Alone, E. coli ECO2) was 100 µg/mL (≈ 200 µM) and the MIC (bacterial isolates; Escherichia coli, read-out: Mupirocin MIC Alone, E. coli ECO3) was 100 µg/mL (≈ 200 µM). For the same compound, the MIC (bacterial isolates; Escherichia coli, read-out: Mupirocin MIC Alone, E. coli ECO5) was 100 µg/mL (≈ 200 µM), the MIC (bacterial isolates; Escherichia coli, read-out: Mupirocin MIC Alone, E. coli SBECO1) was 100 µg/mL (≈ 200 µM) and the MIC (bacterial isolates; Escherichia coli, read-out: Mupirocin MIC Alone, E. coli SBECO2) was over 100 µg/mL. It also gave an MIC (bacterial isolates; Pseudomonas aeruginosa, read-out: Mupirocin MIC Alone, P. aeruginosa PA2) of over 100 µg/mL, an MIC (bacterial isolates; Pseudomonas aeruginosa, read-out: Mupirocin MIC Alone, P. aeruginosa PA3) of over 100 µg/mL and an MIC (bacterial isolates; Pseudomonas aeruginosa, read-out: Mupirocin MIC Alone, P. aeruginosa PA4) of over 100 µg/mL. It also gave an MIC (bacterial isolates; Pseudomonas aeruginosa, read-out: Mupirocin MIC Alone, P. aeruginosa SBPA1) of over 100 µg/mL, an MIC (bacterial isolates; Serratia marcescens, read-out: Mupirocin MIC Alone, S. marcescens SBSM1) of over 100 µg/mL and an MIC (bacterial isolates; Serratia marcescens, read-out: Mupirocin MIC Alone, S. marcescens SBSM2) of over 100 µg/mL. For the same compound, the MIC (bacterial isolates; Staphylococcus aureus, read-out: Mupirocin MIC Alone, S. aureus SBSA3) was 100 µg/mL (≈ 200 µM), the MIC (bacterial isolates; Staphylococcus aureus, read-out: Mupirocin MIC Alone, S. aureus SBSA4) was over 100 µg/mL and the MIC ([1]; Escherichia coli, read-out: Mupirocin MIC Alone, E. coli) was 100 µg/mL (≈ 200 µM). For the same compound, the MIC ([1]; Pseudomonas aeruginosa, read-out: Mupirocin MIC + Peptide, P. aeruginosa, peptide MBI 28) was 3 µg/mL, the MIC ([1]; Pseudomonas aeruginosa, read-out: Mupirocin MIC + Peptide, P. aeruginosa, peptide MBI 29A3) was 0.1 µg/mL and the MIC ([1]; Pseudomonas aeruginosa, read-out: Mupirocin MIC Alone, P. aeruginosa) was over 100 µg/mL. The MIC ([1]; read-out: Mupirocin MIC + Peptide, E. coli, peptide MBI 11B4CN) was 3 µg/mL, the MIC ([1]; read-out: Mupirocin MIC + Peptide, E. coli, peptide MBI 11D18CN) was 1 µg/mL and the MIC ([1]; read-out: Mupirocin MIC + Peptide, E. coli, peptide MBI 21A1) was 3 µg/mL. The MIC ([1]; read-out: Mupirocin MIC + Peptide, E. coli, peptide MBI 26) was 3 µg/mL, the MIC ([1]; read-out: Mupirocin MIC + Peptide, E. coli, peptide MBI 28) was 0.1 µg/mL and the “MIC comb. (antibiotic agent)” value ([2]; E. faecium, with MBI 11CN) was 0.1 µg/mL (≈ 0.2 µM). The “MIC comb. (antibiotic agent)” value ([2]; E. faecium, with MBI 11G13CN) was 0.1 µg/mL (≈ 0.2 µM), the MIC ([2]; Enterococcus faecium, read-out: MIC alone (antibiotic agent), E. faecium) was 100 µg/mL (≈ 200 µM) and the “MIC comb. (antibiotic agent)” value ([2]; S. aureus, with MBI 11A1CN) was 1 µg/mL (≈ 2 µM). The “MIC comb. (antibiotic agent)” value ([2]; S. aureus, with MBI 11CN) was 0.1 µg/mL (≈ 0.2 µM), the “MIC comb. (antibiotic agent)” value ([2]; S. aureus, with MBI 11D18CN) was 0.1 µg/mL (≈ 0.2 µM) and the “MIC comb. (antibiotic agent)” value ([2]; S. aureus, with MBI 11F1CN) was 3 µg/mL (≈ 5.99 µM). For the same compound, the “MIC comb. (antibiotic agent)” value ([2]; S. aureus, with MBI 21A1) was 0.1 µg/mL (≈ 0.2 µM), the “MIC comb. (antibiotic agent)” value ([2]; S. aureus, with MBI 21A2) was 0.1 µg/mL (≈ 0.2 µM) and the “MIC comb. (antibiotic agent)” value ([2]; S. aureus, with MBI 21A10) was 0.3 µg/mL (≈ 0.599 µM). For the same compound, the “MIC comb. (antibiotic agent)” value ([2]; S. aureus, with MBI 26) was 0.1 µg/mL (≈ 0.2 µM), the “MIC comb. (antibiotic agent)” value ([2]; S. aureus, with MBI 29A3) was 0.1 µg/mL (≈ 0.2 µM) and the MIC ([2]; Staphylococcus aureus, read-out: MIC alone (antibiotic agent), S. aureus) was over 100 µg/mL. It also gave an MIC (S. aureus) of over 100 µg/mL.

Source: patent US20020035061A1, “COMPOSITIONS AND METHODS FOR TREATING INFECTIONS USING CATIONIC PEPTIDES ALONE OR IN COMBINATION WITH ANTIBIOTICS” (priority 1996, published 2002)
